The record followed here is patent US20250011881A1, “MYC-HSF1 DUAL AMPLIFICATION AS A BIOMARKER FOR CANCER TREATMENT” (The Trustees of Indiana University, priority 2023, published 2025).

Counter-ions that a name gives are not always drawn.

The first assay concerns ovarian cancer cells with (OVCAR8, OVCAR4) or without (OVSAHO, CAOV3) MYC-HSF1 amplification. Nature of the assay: Epigenetic inhibitor drug screen, cell viability (Cell Titer Blue). It is filed as cell-based.
Details: not given
For Oxamflatin, the “Non Amp - AMP (POC) 10 uM” value stood at 24.33 POC. In the case of `CCC(=O)CCCCC[C@@H]1NC(=O)[C@H]2CCCCN2C(=O)[C@H]([C@@H](C)CC)NC(=O)[C@H](Cc2cn(OC)c3ccccc23)NC1=O` [Apicidin], the “Non Amp - AMP (POC) 10 uM” value was 45.97 POC.

For `CCCC(=O)[O-].[Na+]` [Sodium butyrate], the “Non Amp - AMP (POC) 10 uM” value is recorded as −0.4466 POC. The same measure, in the same setting: to `O=C(O)CNC(=O)C1C(=O)N(C2CCCCC2)C(=O)N(C2CCCCC2)C1=O` [Daprodustat(GSK1278863), Daprodustat] belongs 0.9715 POC; to `O=C(Nc1cccc(Nc2nccc(Nc3cccc(C(F)(F)F)c3)n2)c1)C1CC1` [Aurora Kinase Inhibitor III], −0.3226 POC; to `NC(=O)c1cccc2cn(-c3ccc([C@@H]4CCCNC4)cc3)nc12` [MK-4827], −0.7556 POC. `CN(C)CCCn1cc(C2=C(c3c[nH]c4ccccc34)C(=O)NC2=O)c2ccccc21` [GF 109203X]: the “Non Amp - AMP (POC) 10 uM” value is on record as 3.766 POC. Same read-out and setting: to `CCN1CCN(C(=O)Cc2ccc(Nc3ncc(F)c(Nc4ccc(C(=O)Nc5ccccc5Cl)cc4)n3)cc2)CC1` [Aurora A Inhibitor I] belongs 8.339 POC.

The same assay, now with this note: 10 uM, 48 hrs; average relative cell viability (vs 1% DMSO) of non-amplified cells (OVSAHO, CAOV3) minus that of MYC-HSF1 amplified cells (OVCAR8, OVCAR4); positive = greater response in amplified cells.
In the case of `CCC(=O)N1CCOc2c(cc(-c3ccc(OC)c(OC)c3)cc2OC[C@H]2CCCN(C)C2)C1` [I-CBP112 (hydrochloride)], the “Non Amp - AMP (POC) 10 uM” value worked out at 20.48 POC.

For `N#Cc1c(Oc2ccc(F)c(NC(=O)Cc3cccc(C(F)(F)F)c3)c2)ccc2nc(NC(=O)C3CC3)sc12` [TAK-632], the “Non Amp - AMP (POC) 10 uM” value is reported as −12.18 POC. The same measure, in the same setting: as for `O=C(NCC1(c2nc(-c3ccccc3)cs2)CCOCC1)c1cccc(-c2noc(C(F)(F)F)n2)c1` [TMP269], the figure is 16.29 POC.

Regarding `CS(=O)(=O)c1ccc(-c2nnc(/C=C/c3nnc(-c4ccc(C#N)cc4)o3)n2-c2ccccc2Cl)nc1` [G007-LK], the “Non Amp - AMP (POC) 10 uM” value is −1.13 POC. On the same count and under the same terms, as for `O=C(NO)c1cccc(C(=O)NCCc2ccccc2)c1` [BRD73954], the figure is 10.33 POC; as for `Nc1nc(Nc2ccc(S(N)(=O)=O)cc2)nn1C(=O)c1c(F)cccc1F` [JNJ-7706621], −15.24 POC. With `O=C(O)CNC(=O)c1c(O)c2ccccc2n(Cc2ccccc2)c1=O` [IOX2(Glycine)], the “Non Amp - AMP (POC) 10 uM” value came to 10.17 POC. Regarding `O=C([C@@H](Cc1cccc(C(F)(F)F)c1)NS(=O)(=O)c1cc(F)c2c(c1)CCNC2)N1CCCC1` [PFI-2], the “Non Amp - AMP (POC) 10 uM” value was −2.63 POC.

Regarding `c1cc(-c2cnn3cc(-c4ccc(OCCN5CCCCC5)cc4)cnc23)ccn1` [Dorsomorphin (Compourd C), Dorsomorphin], the “Non Amp - AMP (POC) 10 uM” value was 7.913 POC.

Regarding `N.N.O=C([O-])C1(C(=O)[O-])CCC1.[Pt+2]` [Carboplatin], the “Non Amp - AMP (POC) 10 uM” value is on record as −13.46 POC. On the same count and under the same terms, to `O=C(NO)c1ccc(CC(=O)N(CCO)c2ccccc2)cc1` [HPOB] belongs 18.14 POC; to `Cc1nc(N)sc1-c1ccnc(Nc2ccc(N3CCOCC3)cc2)n1` [CYC116], 8.383 POC. On the same count and under the same terms, to `O=C(O)[C@]1(Cc2cccc(Nc3nccs3)n2)CC[C@@H](Oc2cccc(Cl)c2F)CC1` [MK-5108 (VX-689)] belongs 0.08992 POC.

In the case of `CN1CCC(=C2c3ccccc3C=Cc3ccccc32)CC1` [Cyproheptadine (hydrochloride hydrate), Cyproheptadine], the “Non Amp - AMP (POC) 10 uM” value amounted to 6.958 POC. Still for that read-out and setting: as for `Cc1cc(Nc2nc(N[C@@H](C)c3ncc(F)cn3)ncc2Cl)[nH]n1` [AZD1480], the figure is 0.4361 POC; as for `O=C1Nc2cc(Br)ccc2/C1=C1/Nc2ccccc2/C1=N\O` [GSK-3 Inhibitor IX (BIO)], −1.008 POC; as for `BrC1C(Br)C(Br)C(Br)C(Br)C1Br` (stereo not shown) [1,2,3,4,5,6-Hexabromocyclohexane], −13.98 POC.

In the case of `O=C(NCc1ccccc1)c1c(/N=C/c2c(O)ccc3ccccc23)sc2c1CCCC2` [JGB1741], the “Non Amp - AMP (POC) 10 uM” value is reported as 9.247 POC. Same read-out and setting: as for `NC(=O)c1cccnc1` [Nicotinamide], the figure is −2.471 POC; as for `COC(=O)CNC(=O)C(=O)OC` [DMOG], −8.654 POC; as for `C1=C/COCc2cc(ccc2OCCN2CCCC2)Nc2nccc(n2)-c2cccc(c2)COC/1` [Pacritinib (SB1518), Pacritinib], −2.391 POC.

Consider `Cc1nc(-c2cccnc2)sc1C(=O)Nc1ccccc1-c1cn2c(CN3CCOCC3)csc2n1` [SRT2104 (GSK2245840)], for which the “Non Amp - AMP (POC) 10 uM” value is −1.9 POC. On the same count and under the same terms, as for `CCCCN(Cc1ccc(C(=O)NO)cc1)C(=O)Nc1ccccc1` [Nexturastat A], the figure is 23.67 POC; as for `CC1(C)C(=O)N=C2C1=C(O)C(=O)c1ccccc12` [BVT 948], 22.87 POC.

For the molecule `CN1CCN(c2nc(C3=C(c4c[nH]c5ccccc45)C(=O)NC3=O)c3ccccc3n2)CC1` [Sotrastaurin (AEB071), Sotrastaurin], the “Non Amp - AMP (POC) 10 uM” value amounted to 10.63 POC. The same measure, in the same setting: as for `CCCOc1ccc(CCc2nc3cc(-c4c(C)noc4C)ccc3n2CCN2CCOCC2)cc1.Cl` [PF-CBP1 hydrochloride], the figure is 9.953 POC; as for `COc1ccc(-c2nc(N3CCOCC3)c3sc(CN(C)c4ncc(C(=O)NO)cn4)cc3n2)cn1` [CUDC-907], 8.159 POC; as for `CCC(=O)Nc1cccc(Oc2nc(Nc3ccc(N4CCN(C)CC4)cc3OC)ncc2Cl)c1` [WZ4003], −24.51 POC. The same measure, in the same setting: as for `O=S(=O)(NCCSSCCNS(=O)(=O)c1cc(Cl)ccc1Cl)c1cc(Cl)ccc1Cl` [KC7F2], the figure is −3.553 POC; as for `CC(C)c1cccc(=O)c(O)c1` [Hinokitiol], −6.718 POC; as for `CO[C@@H]1[C@H](N(C)C(=O)c2ccccc2)C[C@H]2O[C@]1(C)n1c3ccccc3c3c4c(c5c6ccccc6n2c5c31)C(=O)NC4` [Midostaurin (PKC412), Midostaurin], −9.891 POC.

Consider `COc1cc2c(Nc3ccc(NC(=O)c4ccccc4)cc3)ncnc2cc1OCCCN1CCOCC1` [ZM 447439], for which the “Non Amp - AMP (POC) 10 uM” value was 0.5089 POC. The same measure, in the same setting: to `Cc1cn(CCN2CCN(c3ccccc3-c3cc(C#N)cc(C(=O)NCCCN4CCCC4)c3)CC2)c2ccccc12` [LLY507] belongs −14.82 POC. Still for that read-out and setting: to `O=C(CBr)c1ccc(O)cc1` [PTP Inhibitor I] belongs −3.586 POC.

For CPI-455, the “Non Amp - AMP (POC) 10 uM” value was −8.682 POC.

The assay is the same for the next values; noted with them: 10 uM, 48 hrs; average relative cell viability (vs 1% DMSO) of non-amplified cells (OVSAHO, CAOV3) minus that of MYC-HSF1 amplified cells (OVCAR8, OVCAR4); positive = greater response in amplified cells; 10 µM.
Consider `Cn1c(/C=C/C(=O)NO)ccc1/C=C/C(=O)c1cccc(F)c1` [MC 1568], for which the “Non Amp - AMP (POC) 10 uM” value was −4.947 POC.

Consider `Cl.O=C([C@@H](Cc1cccc(C(F)(F)F)c1)NS(=O)(=O)c1cc(F)c2c(c1)CCNC2)N1CCCC1` [PFI-2 (hydrochloride)], for which the “Non Amp - AMP (POC) 10 uM” value stood at 2.189 POC. On the same count and under the same terms, as for `COc1cc2c(cc1-c1c(C)noc1C)ncc1[nH]c(=O)n([C@H](C)c3ccccn3)c12` [I-BET151], the figure is 21.72 POC. As for `Nc1nccc2c1ncn2[C@@H]1C=C(CO)[C@@H](O)[C@H]1O` [3-Deazaneplanocin A], the “Non Amp - AMP (POC) 10 uM” value turned out to be 28.52 POC.

The same assay, now with this note: 10 uM, 48 hrs; average relative cell viability (vs 1% DMSO) of non-amplified cells (OVSAHO, CAOV3) minus that of MYC-HSF1 amplified cells (OVCAR8, OVCAR4); positive = greater response in amplified cells; listed as I-BET151 (GSK1210151A), 10 µM.
`COc1cc2c(cc1-c1c(C)noc1C)ncc1[nH]c(=O)n([C@H](C)c3ccccn3)c12` [I-BET151]: the “Non Amp - AMP (POC) 10 uM” value was 3.072 POC.

The same assay, now with this note: 10 uM, 48 hrs; average relative cell viability (vs 1% DMSO) of non-amplified cells (OVSAHO, CAOV3) minus that of MYC-HSF1 amplified cells (OVCAR8, OVCAR4); positive = greater response in amplified cells; listed as MC1568, 10 µM.
Turning to `Cn1c(/C=C/C(=O)NO)ccc1/C=C/C(=O)c1cccc(F)c1` [MC 1568], the “Non Amp - AMP (POC) 10 uM” value is reported as −17.78 POC.
